Reference: the NIST ThermoML archive (doi:10.1021/acs.jced.8b00387)
Several values for one entry are separate records, joined by “and”; a condition that tells them apart may be missing. Equal entries are not always repeated. ± gives the expanded uncertainty stated by the source.

Settings: for viscosity / mass density / speed of sound: 102 kPa, Liquid; for viscosity: Concentric cylinders viscometry; for mass density: Vibrating tube method; for speed of sound: Frequency=3 MHz, Single path-length method; for surface tension liquid-gas: Pendant drop shape

SMILES	viscosity (253.15 K)	mass density (253.15 K)	speed of sound (288.15 K)	mass density (288.15 K)	viscosity (293.15 K)	speed of sound (293.15 K)	mass density (293.15 K)	viscosity (303.15 K)	speed of sound (303.15 K)	mass density (303.15 K)	viscosity (313.15 K)	speed of sound (313.15 K)	mass density (313.15 K)	viscosity (323.15 K)	speed of sound (323.15 K)	mass density (323.15 K)	viscosity (333.15 K)	speed of sound (333.15 K)	mass density (333.15 K)	surface tension liquid-gas (295 K)	further results
CC(CC(C)(C)C)CC(C)(C)CC(C)(C)C (stereo not given) [2,2,4,4,6,8,8-heptamethylnonane]	14.09 ± 0.19 mPa·s	811.4 ± 2 kg/m3	1305.1 ± 1.2 m/s	787.76 ± 0.71 kg/m3	3.75 ± 0.03 mPa·s	1285.9 ± 1.2 m/s	784.41 ± 0.71 kg/m3	2.97 ± 0.03 mPa·s	1248.3 ± 1.2 m/s	777.73 ± 0.72 kg/m3	2.4 ± 0.02 mPa·s	1211.7 ± 1.2 m/s	770.99 ± 0.72 kg/m3	1.97 ± 0.02 mPa·s	1175.9 ± 1.2 m/s	764.27 ± 0.72 kg/m3	1.65 ± 0.02 mPa·s	1141.3 ± 1.2 m/s	757.53 ± 0.72 kg/m3	–	surface tension liquid-gas (294.7 K): 24.2 ± 0.3 mN/m
CC(CC(C)(C)C)CC(C)(C)C [2,2,4,6,6-pentamethylheptane]	3.08 ± 0.06 mPa·s	775.8 ± 2 kg/m3	1223.7 ± 1.3 m/s	748.8 ± 0.7 kg/m3	1.31 ± 0.02 mPa·s	1203.8 ± 1.3 m/s	745.2 ± 0.7 kg/m3	1.13 ± 0.02 mPa·s	1164.7 ± 1.3 m/s	737.9 ± 0.7 kg/m3	0.955 ± 0.021 mPa·s	1126.5 ± 1.3 m/s	730.6 ± 0.7 kg/m3	0.849 ± 0.021 mPa·s	1089.1 ± 1.3 m/s	723.2 ± 0.7 kg/m3	0.744 ± 0.021 mPa·s	1052.7 ± 1.3 m/s	715.8 ± 0.7 kg/m3	–	surface tension liquid-gas (294 K): 22.1 ± 0.4 mN/m
CCCCc1ccccc1 [butylbenzene]	2.21 ± 0.06 mPa·s	892.6 ± 2 kg/m3	1373.7 ± 1.1 m/s	864.47 ± 0.71 kg/m3	1 ± 0.02 mPa·s	1353.2 ± 1.1 m/s	860.17 ± 0.71 kg/m3	0.88 ± 0.021 mPa·s	1314.3 ± 1.1 m/s	852.13 ± 0.71 kg/m3	0.775 ± 0.021 mPa·s	1276.1 ± 1.1 m/s	844.07 ± 0.71 kg/m3	0.687 ± 0.021 mPa·s	1238.4 ± 1.1 m/s	835.98 ± 0.71 kg/m3	0.615 ± 0.021 mPa·s	1201.5 ± 1.1 m/s	827.86 ± 0.71 kg/m3	29 ± 0.3 mN/m	–
CCCCCCc1ccccc1 [hexylbenzene]	4.56 ± 0.07 mPa·s and 4.63 ± 0.04 mPa·s	888.9 ± 0.4 kg/m3 and 889.1 ± 2 kg/m3	1395.8 ± 1.6 m/s and 1395.6 ± 1.6 m/s	862.3 ± 0.4 kg/m3 and 862.4 ± 0.8 kg/m3	1.64 ± 0.02 mPa·s and 1.66 ± 0.02 mPa·s	1376 ± 1.6 m/s and 1376.5 ± 1.6 m/s	858.5 ± 0.4 kg/m3 and 858.6 ± 0.8 kg/m3	1.39 ± 0.02 mPa·s and 1.41 ± 0.01 mPa·s	1338.1 ± 1.6 m/s and 1338.7 ± 1.6 m/s	850.9 ± 0.4 kg/m3 and 851 ± 0.8 kg/m3	1.17 ± 0.02 mPa·s and 1.19 ± 0.01 mPa·s	1301.1 ± 1.6 m/s and 1301.6 ± 1.6 m/s	843.3 ± 0.4 kg/m3 and 843.4 ± 0.8 kg/m3	1.03 ± 0.02 mPa·s and 1.04 ± 0.01 mPa·s	1264.7 ± 1.6 m/s and 1265.3 ± 1.6 m/s	845.7 ± 0.4 kg/m3 and 835.8 ± 0.8 kg/m3	0.9 ± 0.02 mPa·s	1229.4 ± 1.6 m/s and 1229.8 ± 1.6 m/s	828.1 ± 0.4 kg/m3 and 828.2 ± 0.8 kg/m3	29.3 ± 0.4 mN/m	–
